# The source made the active and inactive calls.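 The calls were made as follows: active = IC50 of 20 µM or lower; inactive = the rest.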
# System: HL-1 cardiomyocytes, H2O2 injury, ATP luminescence, 2 h
# Experiment: protection of HL-1 cardiomyocytes from peroxide injury, dose response, cell-based, ATP luminescence (AID 602215);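 also: potency is for protection so actives raise ATP signal against peroxide damage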
row,SMILES,IC50
1,COc1ccc(-c2cc(C(=O)Nc3ccccc3N3CCOCC3)c3ccccc3n2)cc1OC,4.35 µM
2,COc1ccccc1N1CCN(C(=O)c2ccc3nc(-c4ccco4)c(-c4ccco4)nc3c2)CC1,> 79 µM (inactive)
3,CC(C)(C)NC(=O)c1cc(NC(=O)c2cccs2)cc(NC(=O)c2cccs2)c1,> 79 µM (inactive)
4,COc1cc(/C=N/NC(=O)NC23CC4CC(CC(C4)C2)C3)ccc1OCC(N)=O,48.3 µM (inactive)
5,CC(=O)Nc1cccc(-c2cc(NC=O)c3ncc(-c4ccc(C(C)=O)cc4)n3c2)c1,6.11 µM
6,O=[N+]([O-])c1ccc(Nc2nc(N/N=C/c3cccc(F)c3)nc(N3CCCC3)n2)cc1,> 79 µM (inactive)
7,COc1ccccc1NC(=O)c1cc(-c2cc(OC)c(OC)c(OC)c2)nc2ccccc12,13.4 µM
8,O=C(CCCN1C(=O)c2cccc3cccc(c23)C1=O)N1CCN(c2ccccc2O)CC1,7.51 µM
9,CC(=O)Nc1cc(-c2cccc(NS(C)(=O)=O)c2)cn2c(-c3cccc(C(C)=O)c3)cnc12,11.4 µM
10,Cc1nc(N2CCN(c3ccccn3)CC2)c2c(C)c(C(=O)Nc3ccc(F)cc3)sc2n1,> 79 µM (inactive)
11,COc1ccc(-c2cc(NC=O)c3ncc(-c4ccc(C(C)=O)cc4)n3c2)cn1,> 79 µM (inactive)
12,CC(=O)c1cccc(-c2cnc3c(NC=O)cc(-c4ccccc4F)cn23)c1,3.28 µM
13,CC(C)(C)OC(=O)N1CCC(NC(=O)c2nc[nH]c2C(=O)NCC(=O)OCc2ccccc2)CC1,> 79 µM (inactive)
14,COc1ccc(CCNc2nc(-c3cccnc3)nc3ccccc23)cc1OC,> 79 µM (inactive)
15,O=C(CNC(=O)c1[nH]cnc1C(=O)NC(c1ccccc1)c1ccccc1)OCc1ccccc1,69.7 µM (inactive)
16,Nc1c(C(=O)N/N=C/c2cccnc2)oc2nc(-c3ccccc3)cc(-c3ccco3)c12,> 79 µM (inactive)
17,NC(=O)c1nsc(C(=O)N(c2ccccc2F)C(C(=O)NCc2ccccc2)c2ccc(O)cc2)c1N (stereo unspecified),15.8 µM
18,COc1ccccc1CN(C(=O)CNC(=O)c1ccco1)C(C(=O)NCC1CCCO1)c1ccccc1 (stereo unspecified),> 79 µM (inactive)
19,COc1ccc(-c2cc(NC(C)=O)c3ncc(-c4cccc(C(C)=O)c4)n3c2)cc1OC,> 79 µM (inactive)
20,CNC(=O)COC(=O)/C=C/c1cn(-c2ccccc2)nc1-c1ccc(C)o1,37.1 µM (inactive)
21,CS(=O)(=O)c1ccc(-c2cnc3c(NC=O)cc(-c4ccsc4)cn23)cc1,8.73 µM
22,CC(C)(C)OC(=O)CNC(=O)c1[nH]cnc1C(=O)NCC(=O)OCc1ccccc1,28.2 µM (inactive)
23,COc1cc(C(=O)NCC(=O)N/N=C/c2ccc(-c3cccc([N+](=O)[O-])c3)o2)cc(OC)c1OC,9.15 µM

row,SMILES,IC50
1,COc1cccc(Nc2nc3ccccc3n3cnnc23)c1,> 79 µM (inactive)
2,CC(C)(C)OC(=O)C[C@@H]1C/C=C\C[C@@H](CC(=O)N[C@@H](CO)Cc2ccccc2)C(=O)NC[C@@H](c2ccccc2)OC1=O,> 79 µM (inactive)
3,NC(=O)c1nsc(C(=O)N(c2ccccc2F)C(C(=O)NCc2ccc(F)cc2)c2ccc(O)cc2)c1N (stereo unspecified),> 79 µM (inactive)
4,COc1cc2[nH]c(=O)n3nc(-c4ccccc4)nc3c2cc1OC,> 79 µM (inactive)
5,COc1ccc(-c2csc(NC(=O)c3cccc(N4C(=O)CCC4=O)c3)n2)cc1OC,> 79 µM (inactive)
6,COc1cccc(-c2cnc3c(NC(C)=O)cc(-c4cccc(NS(C)(=O)=O)c4)cn23)c1,6.83 µM
7,COc1cc(/C=C/c2nnc3c4ccccc4ncn23)cc(OC)c1OC,13.8 µM
8,NC(=O)c1nsc(C(=O)N(c2ccccc2)C(C(=O)NCc2ccc(F)cc2)c2ccc(O)cc2)c1N (stereo unspecified),> 79 µM (inactive)
9,O=C(COC(=O)c1c2c(nc3ccccc13)/C(=C/c1cccc([N+](=O)[O-])c1)CCC2)NC1CCS(=O)(=O)C1 (stereo unspecified),> 79 µM (inactive)
10,COC(=O)c1cc2ccccn2c2c(C(=O)OC)c(C(=O)OC)cc1-2,> 79 µM (inactive)
11,CC(=O)Nc1ccc(Nc2nc(-c3sc(NC(C)=O)nc3C)cs2)cc1,20.1 µM (inactive)
12,COc1ccc(C(=O)O/N=C(/c2ccccc2)c2ccncc2)cc1OC,> 79 µM (inactive)
13,COc1cc(-c2cc(NC=O)c3ncc(-c4ccc(C(C)=O)cc4)n3c2)cc(OC)c1OC,4.1 µM
14,CN(C)S(=O)(=O)c1ccc2[nH]cc(/C=C/c3nc4ccccc4c(=O)n3-c3ccccc3)c2c1,> 79 µM (inactive)
15,COc1ccccc1NC(=O)c1cc(-c2ccc(OC)c(OC)c2)nc2ccccc12,> 79 µM (inactive)
16,COc1cc(/C=C(\C#N)c2nc3ccc(C)cc3[nH]2)c([N+](=O)[O-])cc1OC,> 79 µM (inactive)
17,COCCN1Cc2cccc(C(=O)Nc3cccc(-c4nc5ccccc5[nH]4)c3)c2C1=O,> 79 µM (inactive)
18,CC(=O)c1ccc(-c2ccc(C(=O)Nc3nc(-c4ccccn4)cs3)o2)cc1,> 79 µM (inactive)
19,CCc1nc2ccc(C(=O)Nc3cc(-c4ccccc4)ccc3OC)cn2c1N(C)Cc1nccs1,> 79 µM (inactive)
20,O=C(Nc1ccccc1)c1nc[nH]c1C(=O)NCCNC(=O)c1[nH]cnc1C(=O)Nc1ccccc1,> 79 µM (inactive)
21,Cc1nn(-c2ccccc2)c(N2CCCC2)c1/C=N/NC(=O)c1cc(-c2ccccn2)nc2ccccc12,> 79 µM (inactive)
22,CCOc1ccc(-n2cc(-c3ccccc3)c3c(N4CCOCC4)ncnc32)cc1,24 µM (inactive)
23,O=C(N/N=C/c1ccccn1)c1cc(-c2cccc3ccccc23)n[nH]1,> 79 µM (inactive)
